Patent publication US20240325334A1, “COMPOSITION FOR GENERATING NITROGEN MONOXIDE” (SEOUL NATIONAL UNIVERSITY R&DB FOUNDATION, priority 2021, published 2024)

Test: NO generation experiment: compound reacted with H2O2 in the presence of a catalyst, Griess assay
Conditions: compound 1 mg/ml, PBS pH 5.5, 1 mM H2O2, 37° C., 4 hours
Description: Generation of nitric oxide was investigated by reacting the above-described compounds having a structure of
with hydrogen peroxide (H2O2) in the presence of a catalyst. After suspending particles including 1 mg/ml of the compound below and the catalyst in a medium composed of 5 ml of PBS at pH 5.5 and hydrogen peroxide (H2O2) at 1 mM concentration, the suspension was subjected to incubation at 37° C. for 4 hours, followed by sampling the supernatant to analyze the NO generation through Griess assay.

Q: What does the source list for `N=C(N)NCCC[C@H](NC(=O)OCc1ccccc1)C(=O)O` [Nα-Benzyloxycarbonyl-L-arginine]?
A: Concentration of generated NO (catalyst Mn-porphyrin 2 mg/ml): 34 µM; Concentration of generated NO (catalyst PCN-223-Fe 1 mg/ml): 216 µM
